From US8847000B2 (priority 2006, dated 2014)

System: cell proliferation
Format: cell-based

Row | Substance | IC50
1 | trimethylarsineoxide [TMAO] | > 6000 µM
2 | Arsenious acid | 10 µM
